From patent US6797721B2, “Phorboxazole derivatives for treating cancer” (Parker Hughes Institute, priority 1999, dated 2004)

How the values were obtained:
[1] = tested on: MDA-MB-231 breast cancer cells; experiment: In vitro adhesion assay to ECM proteins, MDA-MB-231; assay type: cell-based, human; details: laminin-, fibronectin-, and collagen-coated plates, 0.1 μM to 1 μM for 24 hours
Procedure: Human brain tumor cell lines U-373 MG and breast cancer cell lines BT-20 and MDA-MB-231 were obtained from American Type Culture Collection (ATCC, Rockville, Md.) and maintained in liquid culture using DMEM supplemented with 10% fetal bovine serum and antibiotics. Fibroblast conditioned medium was used as a source of chemoattractant in vitro invasion assays. Conditioned medium was prepared as described in the literature (Albini et.al., 1987, Cancer Res., 47:3239-3245).
In vitro adhesion assays were performed to (a) study the baseline adhesive properties of various breast cancer and glioblastoma cell lines and (b) evaluate the effects of phorboxazole A derivatives on the adhesive properties of breast cancer and glioblastoma cells. The plates for the adhesion assays were precoated with the extracellular matrix proteins laminin, fibronectin, or type IV collagen (each at a final concentration of 1 μg/ml in PBS) overnight at 4° C. and dried. On the day of the experiment, the wells were rehydrated and blocked with 10% bovine serum albumin in PBS for 1 hour at room temperature and used for the adhesion assays, as described below.
The effects of synthetic phorboxazole A and specific derivatives on adhesion of breast cancer and glioblastoma cells was studied. Exponentially growing cells in DMEM were incubated with phorboxazole compounds or genistein as a control at concentrations ranging from 0.1 μM to 1 μM for 24 hours in a humidified 5% CO2 atmosphere. DMSO (0.1%) was included as a vehicle control. After treatment, cells were detached from the flasks with 0.05% trypsin (Life Technologies) resuspended in DMEM, incubated at 37° C. for 2 hours to allow them to recover from the trypsinization stress and examined for their ability to adhere to plates precoated with ECM proteins.
In adhesion assays, cells were centrifuged, washed twice with serum-free DMEM, counted and resuspended in serum-free DMEM to a final concentration of 2.5×10^5 cells/ml. […] The adherent fraction was quantitated using MTT (3-[4,5-dimethylthiazol-2-yl]-2,5-diphenyltetrazolium bromide) assays. […] The absorbance of each well was measured in a microplate reader (Labsystems) at 540 nm and a reference wavelength of 690 nm.
To translate the OD540 values into the number of cells in each well, the OD540 values were compared to those on standard OD540-versus-cell number curves generated for each cell line. The adherent fractions of cells treated with phorboxazole A derivatives were compared to those of DMSO-treated control cells and the percent inhibition of adhesion was determined using the formula: [formula]
Each treatment condition was evaluated in duplicate in 3 independent experiments. The IC50 values were calculated by non-linear regression analysis. […]

[2] = tested on: RPMI-18226 (multiple myeloma); experiment: MTT cytotoxicity assay, RPMI-18226; assay type: cell-based; details: Homo sapiens, RPMI18226
[3] = tested on: BT-20 human breast cancer cells; experiment: Clonogenic assay, BT-20; assay type: cell-based; details: 7 days
Procedure: (§1) The growth-inhibiting activity of the synthetic Phorboxazole A and the synthesized derivatives was tested in clonogenic assays. Cancer cells were treated with 1 nM, 10 nM, and 100 nM doses of synthetic Phorboxazole A or derivatives of phorboxazole A. Treated cells included U373 human glioblastoma cells, NALM-6, human B-lineage acute lymphoblastic leukemia cells, and BT-20 human breast cancer cells. The cancer cells were resuspended in clonogenic medium consisting of alpha-MEM supplemented with 0.9% methylcellulose, 30% fetal bovine serum, and 50 μM 2-mercaptoethanol. Cells were plated in duplicate Petri dishes at 100,000 cells/mL/dish and cultured in a humidified 5% CO2 incubator for 7 days. Cancer cell colonies were enumerated on a grid using an inverted phase microscope of high optical resolution. Results were expressed as % inhibition of clonogenic cells at a particular concentration of the test agent using the formula:
(§2) % Inhibition=(1−Mean # of colonies [Test]/Mean # of colonies [Control]×100.

[4] = tested on: DU-145 (prostate cancer); experiment: MTT cytotoxicity assay, DU-145; assay type: cell-based; details: Homo sapiens
Procedure: The cytotoxicity assay of synthetic Phorboxazole A and various derivative compounds against human tumor cells was performed using the MTT (3-[4,5-dimethylthiazol-2-yl]-2,5-diphenyl tetrazolium bromide) assay (Boehringer Mannheim Corp., Indianapolis, Ind.). Briefly, exponentially growing brain tumor cells were seeded into a 96-well plate at a density of 2.5×10^4 cells/well and incubated for 36 hours at 37° C. prior to drug exposure. On the day of treatment, culture medium was carefully aspirated from the wells and replaced with fresh medium containing the various phorboxazole A derivative compounds as well as the tyrosine kinase inhibitory isoflavone genistein (GEN) at concentrations ranging from 0.1 to 250 μM. Triplicate wells were used for each treatment.
The cells were incubated with the various compounds for 24-36 hours at 37° C. in a humidified 5% CO2 atmosphere. To each well, 10 μl of MTT (0.5 mg/ml final concentration) was added and the plates were incubated at 37° C. for 4 hours to allow MTT to form formazan crystals by reacting with metabolically active cells. […] The absorbance of each well was measured in a microplate reader (Labsystems) at 540 nm and a reference wavelength of 690 nm. […] The percent survival was calculated using the formula: [formula]
The IC50 values were calculated by non-linear regression analysis. […]

[5] = tested on: U373 human glioblastoma cells; experiment: Clonogenic assay, U373; assay type: cell-based; details: 7 days
Procedure: as §1, §2

[6] = tested on: HS-SULTAN (multiple myeloma); experiment: MTT cytotoxicity assay, HS-SULTAN; assay type: cell-based; details: Homo sapiens
[7] = tested on: PC3 (prostate cancer); experiment: MTT cytotoxicity assay, PC3; assay type: cell-based; details: Homo sapiens

**Q.** With `C=C1C[C@@H]2C[C@@H]3C[C@@H](O)C[C@@H](O3)c3coc(n3)/C=C/C[C@H]3O[C@@H](/C(C)=C/c4coc(C[C@]5(O)C[C@H](OC)C[C@H]([C@H](O)/C=C(C)/C=C/[C@@H](C/C=C/Br)OC)O5)n4)[C@H](C)[C@@H](OC(=O)/C=C\C[C@@H](C1)O2)[C@H]3C` [Compound 1, Phorboxazole A] as the compound, how does the “Inhibition of cell adhesion” value [1] read?
**A.** active

**Q.** And the IC50 [2]?
**A.** 55.9 nM

**Q.** And the “Mean Number Colonies/10^4 cells” value ([3]; 1 nM)?
**A.** 1070

**Q.** And the “Mean Number Colonies/10^4 cells” value ([3]; 10 nM)?
**A.** 0

**Q.** And the “Mean Number Colonies/10^4 cells” value ([3]; 100 nM)?
**A.** 0

**Q.** What about the inhibition at 0.001 µM ([3]; Homo sapiens, 168 h, 1 nM, read-out: Inhibition of clonogenic growth) of the same compound?
**A.** 29.8%

**Q.** And the inhibition at 0.01 µM ([3]; Homo sapiens, 168 h, 10 nM, read-out: Inhibition of clonogenic growth)?
**A.** > 99.9%

**Q.** And the inhibition at 0.1 µM ([3]; Homo sapiens, 168 h, 100 nM, read-out: Inhibition of clonogenic growth)?
**A.** > 99.9%

**Q.** What about the IC50 [4] of the same compound?
**A.** 15 nM

**Q.** What about the “Mean Number Colonies/10^4 cells” value ([5]; 10 nM) of the same compound?
**A.** 378

**Q.** What about the “Mean Number Colonies/10^4 cells” value ([5]; 100 nM) of the same compound?
**A.** 0

**Q.** And the inhibition at 0.01 µM ([5]; Homo sapiens, U373 MG, 168 h, 10 nM, read-out: Inhibition of clonogenic growth)?
**A.** 42.4%

**Q.** What about the inhibition at 0.1 µM ([5]; Homo sapiens, U373 MG, 168 h, 100 nM, read-out: Inhibition of clonogenic growth) of the same compound?
**A.** > 99.9%

**Q.** And the IC50 [6]?
**A.** 29.8 nM

**Q.** And the IC50 [7]?
**A.** 14.2 nM
